US8173639B2, “Isoquinolinone derivatives as NK3 antagonists” (H. Lundbeck A/S, priority 2007, dated 2012)

Tests used:
human NK3 receptor [1] = biological target: T1, human NK3 receptor (Homo sapiens, UniProt P29371); assay: NK3 receptor binding assay (SPA-based competition binding, 125I-NKB); conditions: table of Example 10; obtained as described in Example 9; read-out: Affinity Ki
T1 construct: expressed in transfected cells; membrane preparation
T1 sequence (P29371 1-465): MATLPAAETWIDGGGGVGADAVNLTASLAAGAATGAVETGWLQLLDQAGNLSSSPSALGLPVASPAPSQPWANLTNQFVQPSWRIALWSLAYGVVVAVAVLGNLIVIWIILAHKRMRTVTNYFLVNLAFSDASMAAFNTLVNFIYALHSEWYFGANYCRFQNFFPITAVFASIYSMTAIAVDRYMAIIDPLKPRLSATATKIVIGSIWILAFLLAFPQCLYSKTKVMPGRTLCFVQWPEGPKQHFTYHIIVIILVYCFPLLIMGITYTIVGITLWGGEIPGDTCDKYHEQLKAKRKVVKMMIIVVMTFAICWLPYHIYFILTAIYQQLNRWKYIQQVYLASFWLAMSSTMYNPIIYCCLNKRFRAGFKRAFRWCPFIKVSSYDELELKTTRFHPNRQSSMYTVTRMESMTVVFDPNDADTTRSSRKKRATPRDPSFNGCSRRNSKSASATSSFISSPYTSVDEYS
Protocol: Membranepreparation: BHK cells stably expressing the human NK3 receptor were seeded in harvesting plates in Dulbeccos MEM containing GlutaMax (862 mg/l), 1 mM sodium pyruvate, 10% fetal calf serum, 1% Pen/Strep, 1 mg/ml G418 and were grown at 34° C. in a humidified atmosphere containing 10% CO2. To increase receptor expression, 10 μM trichotatin A was added to the media 24 hours before harvest of the cells at a confluency of app 90%. Prior to the harvesting, the cells were washed twice with PBS without Mg^2+ or Ca^2+ and subsequently scrapped of in 10 ml PBS pr harvesting plate. The cells suspension were centrifuged at 1500×G in three minutes before resuspension in 15 mM Tris-HCl pH 7.5 buffer containing 2 mM MgCl2; 0.3 mM EDTA and 1 mM EGTA (buffer A). The cell suspension was homogenised and subsequently centrifuged at 4000×G in 30 minutes. The membrane-pellet was resuspended in buffer A containing 250 mM sucrose, aliquoted and stored at −80° C.
Affinity assay description: The assay was performed as a SPA-based competition-binding assay in a 50 mM Tris pH 7.4 assay buffer containing 120 mM NaCl, 3 mM MnCl2, 40 μg/ml bacitracin, 2 μg/ml Chymostatin, 1 μg/ml Phosphoramidon and 4 μg/ml Leupeptin. […] The assay plate was subsequently under agitation incubated for 90 min at RT. The plate was centrifugated 10 minutes at 500×G and counted in a topcounter 5 minutes pr well.

human NK3 receptor [2] = biological target: T1, human NK3 receptor; assay: NK3 receptor efficacy and potency assay (FLIPR Calcium 4, BHK cells); format: cell-based; conditions: read-out: Potency cIC50
Protocol: BHK cells stably expressing the human NK3 receptor were seeded in 100 μl media in black walled clear-base 96-wells plates (Costar) aiming at a confluency of 95-100% at the day of assay. The assay was performed according to the FLIPR Calcium 4 Assay kit (Molecular Devices). At the day of the assay, the media was removed and the cells were washed once with the HBSS buffer (Hanks BSS buffer, pH 7.4 containing 20 mM Hepes) before 100 μl of a solution of the calcium assay reagent dissolved in the HBSS buffer containing 2.5 mM probinicid was added to the cells. The plates were incubated for 60 min at 34° C., 10% CO2 before use in the FLIPR for examination of fluorescence.
For efficacy and potency evaluation of compounds, these were diluted in HBSS buffer prior to test. For test of agonist activity, 25 μl of the diluted compound solution was added and the plate was analyzed for 5 minutes in the FLIPR. […] The plates were subsequently analyzed for 5 minutes before the assay was terminated. The maximal increase in fluorescence over background following each ligand addition was determined.

[3] = cited from earlier work

| Ki (human NK3 receptor [1]) [nM] | IC50 (human NK3 receptor [2]) [nM] | Structure (SMILES) | effect in clinical trials versus placebo ([3]; in particular on positive symptoms of psychosis) | effect on cognitive behaviour in clinical trials ([3]; schizophrenics) |
| --- | --- | --- | --- | --- |
| 160 | 220 | CC[C@H](NC(=O)c1c(CN2CCc3ccccc3C2)n(-c2ccccc2)c(=O)c2ccccc12)c1ccccc1 [Example 2bg, 3-(3,4-Dihydro-1H-isoquinolin-2-ylmethyl)-1-oxo-2-phenyl-1,2-dihydro-isoquinoline-4-carboxylic acid ((S)-1-phenyl-propyl)-amide] |  |  |
| 160 | 300 | CC[C@H](NC(=O)c1c(CN2Cc3ccccc3C2)n(-c2ccccc2)c(=O)c2ccccc12)c1ccccc1 [Example 2bn, 3-(1,3-Dihydro-isoindol-2-ylmethyl)-1-oxo-2-phenyl-1,2-dihydro-isoquinoline-4-carboxylic acid ((S)-1-phenyl-propyl)-amide] |  |  |
| 76 | 49 | CC[C@H](NC(=O)c1c(CN2CCCNCC2)n(-c2ccccc2)c(=O)c2ccccc12)c1ccccc1 [Example 2cz, 3-[1,4]Diazepan-1-ylmethyl-1-oxo-2-phenyl-1,2-dihydro-isoquinoline-4-carboxylic acid ((S)-1-phenyl-propyl)-amide] |  |  |
| 320 | 420 | CC[C@H](NC(=O)c1c(CN2CCOCC2)n(-c2ccccc2)c(=O)c2ccccc12)c1ccccc1 [Example 2r, 3-Morpholin-4-ylmethyl-1-oxo-2-phenyl-1,2-dihydro-isoquinoline-4-carboxylic acid ((S)-1-phenyl-propyl)-amide] |  |  |
| 200 | 340 | CC[C@H](NC(=O)c1c(CN2CC(C)OC(C)C2)n(-c2ccccc2)c(=O)c2ccccc12)c1ccccc1 (stereo partly drawn) [Example 2s, 3-(2,6-Dimethyl-morpholin-4-ylmethyl)-1-oxo-2-phenyl-1,2-dihydro-isoquinoline-4-carboxylic acid ((S)-1-phenyl-propyl)-amide] |  |  |
|  |  | CC(=O)N(C)C1(c2ccccc2)CCN(CCC[C@]2(c3ccc(Cl)c(Cl)c3)CCCN(C(=O)c3ccccc3)C2)CC1 [Osanetant, osanetant] | superior to placebo |  |
|  |  | CC[C@H](NC(=O)c1c(O)c(-c2ccccc2)nc2ccccc12)c1ccccc1 [talnetant] |  | ameliorate the cognitive behaviour of schizophrenics |
